Laboratory results taken from patent US5091386A, “7-substituted derivatives of 3,5-dihydroxyhept-6-ynoic acids and corresponding lactones and their use as hypercholeserolemics” (Hoechst Aktiengesellschaft, priority 1988, dated 1992).

Legend:
[1] = test system: cholesterol biosynthesis in HEP-G2 cells; experiment: Inhibition of cholesterol biosynthesis in HEP-G2 cell cultures; assay type: cell-based; details: for IC50: Homo sapiens, HepG2, 14C-cholesterol formed from 14C-precursor; for relative activity (IC50 ref./IC50): vs analogous hept-6E-enoic acid derivative
Protocol: Monolayers of HEP-G2 cells in lipoprotein-free nutrient medium were preincubated with the appropriate concentrations of the test substances for a defined time (for example 1 hour) and, after addition of the labeled precursor, for example sodium ^14 C-acetate, the incubation was continued (for example for 3 hours). After addition of an internal standard (^3 H-cholesterol) a portion of the cells was subjected to alkaline hydrolysis. The lipids from the hydrolyzed cells were extracted with chloroform/methanol. This lipid mixture was, after addition of carrier cholesterol, subjected to preparative thin-layer chromatography, the cholesterol band was visualized with iodine vapor and then isolated, and the amount of ^14 C-cholesterol formed from the ^14 C-precursor was determined by scintigraphy. Cell protein was determined in an aliquot of the cells so that it is possible to calculate the amount of ^14 C-cholesterol formed in unit time per mg of cell protein. The inhibitory effect of the particular test product on cholesterol biosynthesis by HEP-G2 cell cultures emerged by comparison of this figure with the amount of ^14 C-cholesterol formed per mg of cell protein and unit time in a culture treated in the same way but free of test substance.
Testing of substances for inhibition of cholesterol biosynthesis in confluent cell cultures (monolayers) of HEP-G2 cells [drawing 17]
Using the method described above, for example the following figures for the inhibition of cholesterol biosynthesis (in HEP-G2 cells) were found for the compounds according to the invention (the IC50 /mol is that concentration of the compound which brings about 50% inhibition of cholesterol biosynthesis). IC50 values were determined for the compounds according to the invention as well as for identically substituted 3,5-dihydroxyhept6E-enoic acid derivatives (IC50 ref.). The quotient IC50 ref./IC50 yielded the relative activity of the compounds according to the invention. […] This corresponds to a relative activity of 1.6 based on the analogous hept-6E-enoic acid derivative.

HMG-CoA reductase = target: T1, HMG-CoA reductase (Rattus norvegicus, UniProt P51639); experiment: HMG-CoA reductase activity in enzyme preparations (solubilized enzyme from liver microsomes of rats); assay type: biochemical; details: (SmR) 14C-HMG-CoA substrate
T1 construct: solubilized enzyme preparations from liver microsomes of rats; from tissue; host or cells: rat liver microsomes (solubilized), rats induced with cholestyramine
T1 sequence (P51639 1-887): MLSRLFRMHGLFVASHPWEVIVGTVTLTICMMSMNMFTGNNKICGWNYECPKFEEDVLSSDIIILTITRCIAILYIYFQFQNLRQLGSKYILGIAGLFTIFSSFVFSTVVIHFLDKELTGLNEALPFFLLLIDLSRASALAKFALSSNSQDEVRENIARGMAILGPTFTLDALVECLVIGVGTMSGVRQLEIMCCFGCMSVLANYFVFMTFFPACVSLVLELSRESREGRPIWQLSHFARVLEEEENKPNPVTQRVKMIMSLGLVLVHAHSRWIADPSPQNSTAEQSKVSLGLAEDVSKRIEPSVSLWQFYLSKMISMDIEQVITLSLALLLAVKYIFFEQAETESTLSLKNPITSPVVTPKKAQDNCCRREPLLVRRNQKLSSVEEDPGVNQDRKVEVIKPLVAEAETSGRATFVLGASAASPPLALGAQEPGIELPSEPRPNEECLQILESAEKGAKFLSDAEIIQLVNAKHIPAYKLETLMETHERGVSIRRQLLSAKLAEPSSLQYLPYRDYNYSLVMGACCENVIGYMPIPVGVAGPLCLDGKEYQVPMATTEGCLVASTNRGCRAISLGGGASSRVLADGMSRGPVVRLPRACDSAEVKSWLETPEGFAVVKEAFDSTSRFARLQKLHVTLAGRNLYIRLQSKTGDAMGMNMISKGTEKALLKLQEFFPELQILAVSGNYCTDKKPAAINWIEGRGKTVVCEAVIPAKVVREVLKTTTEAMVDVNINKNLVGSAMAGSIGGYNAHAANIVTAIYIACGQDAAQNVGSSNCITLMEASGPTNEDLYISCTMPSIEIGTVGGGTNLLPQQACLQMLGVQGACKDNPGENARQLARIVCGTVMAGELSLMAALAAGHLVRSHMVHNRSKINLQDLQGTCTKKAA
Protocol: The HMG-CoA reductase activity was measured on solubilized enzyme preparations from liver microsomes of rats which had been induced with cholestyramine (®Cuemid) after changing the day/night rhythm. (Sm R) ^14 C-HMG-CoA was used as substrate, and the concentration of NADPH was maintained during the incubation by a regenerating system. ^14 C-mevalonate was separated from the substrate and other products (for example ^14 C-HMG) by column elution, with the elution profile of each individual sample being determined. ^3 H-Mevalonate was not always included because the object was to determine relative data on the inhibitory effect. In each test series the enzyme-free control, the enzyme-containing normal mixture (=100%) and those with added product, final concentration 10^-5 to 10^-9 M, were treated together. Each individual value was formed as the mean of 3 parallel samples. The significance of the differences between means for product-free and product-containing samples was assessed by the t test.
Using the method described above, for example, the following values for the inhibition of HMG-CoA reductase were found for the compounds according to the invention [IC50 /mol/liter denotes the molar concentration of the compound per liter required for a 50% inhibition]. […]

Row | IC50 (HMG-CoA reductase) [nM] | SMILES | IC50 [1] [nM] | relative activity (IC50 ref./IC50) [1]
1 |  | CC(C)c1nc(-c2ccccc2)cc(-c2ccc(F)cc2)c1C#C[C@@H]1C[C@@H](O)CC(=O)O1 (relative stereo) [Example 8a, 6RS-2-(4-(4-Fluorophenyl)-2-(1-methylethyl)-6-phenylpyridin-3-yl)ethynyl-4SR-hydroxy-3,4,5,6-tetrahydro-2H-pyran-2-one] | 9 | 2.67
2 | 3 | CC(C)c1nc(-c2ccccc2)cc(-c2ccc(F)cc2)c1C#C[C@@H](O)C[C@@H](O)CC(=O)O (relative stereo) [Example 7a, sodium 3RS, 5SR-dihydroxy-7-(4-(4-fluorophenyl)-2-(1-methylethyl)-6-phenylpyridin-3-yl)hept-6-ynoate] |  | 
3 | 5.7 | CC(C)C(C#C[C@@H](O)C[C@@H](O)CC(=O)O)=C(c1ccc(F)cc1)c1ccc(F)cc1 (relative stereo) [Example 7l] |  | 
4 |  | CC(C)c1nc(-c2ccc(F)cc2)nc(-c2ccc(F)cc2)c1C#C[C@@H]1C[C@@H](O)CC(=O)O1 (relative stereo) [Example 8e] | 11 | 1.6
